According to patent publication US11801266B2, “Methods of using anti-MIR126 compounds” (CITY OF HOPE, priority 2019, dated 2023):

Tests used:
CML LSCs = assay: In vivo treatment of CML mice (SCLtTA/BCR-ABL BM cells transplanted into congenic B6 mice); design: species or system mouse; details: CML mice, 3 weeks of treatment, followed 60 days after treatment discontinuation
Protocol: Next, we transplanted BM cells from SCLtTA/BCR-ABL mice (CD45.2) into congenic B6 mice (CD45.1). Following confirmation of CML development at 4 weeks after transplantation, mice were treated as above with scrRNA, inhibitor, scrRNA+NIL, or inhibitor+NIL for 3 weeks.

human BCR-ABL+K562 cells = assay: NIL treatment of K562 cells: miR-126 staining; type: cell-based; details: K562 cells with and without 5 μM NIL
Protocol: K562, HUVEC, normal and CML CD34+CD38− cells were cultured and incubated with miR126 SmartFlare RNA probe (EMD Millipore) for 16 h. […] Cells were then washed in 1× phosphate buffered saline (PBS) and fixed in 4% paraformaldehyde for 3 min. Nuclei were counterstained with DAPI and the images were analyzed using a confocal microscope (Carl Zeiss).

[1] = tested on: BCR-ABL+ primary CD34+ and/or K562 cells; type: cell-based, human
Protocol: Nuclei were counterstained with DAPI.
(§1) Proteins were resolved on 10% sodium dodecyl sulfate-polyacrylamide gel electrophoresis (SDS-PAGE) gels and transferred to nitrocellulose membrane. Membranes were sequentially reprobed with primary and secondary antibodies. […] Horseradish peroxidase-conjugated secondary antibodies were from Jackson ImmunoResearch Laboratories (Westgrove, Pa.). Antibody detection was performed using the Superfemto kit (Pierce Biotechnology, Rockford, Ill.). Protein levels were determined by densitometry using Image-Quant software (Amersham Pharmacia Biotech, Piscataway, N.J.).

CML CD34+ cells = assay: MAPK/ERK, BCL-2 and apoptosis in NIL-treated CML CD34+ cells; type: cell-based, human
Protocol: After transduction performed as above, GFP+ cells selected at 48 h were exposed to NIL (2 μM and 5 μM, Novartis) for another 72 h, and analyzed using assays for cell growth, apoptosis, cell cycle, CFC and CFC replating. […] Cell growth was measured by Lumino Glo (Promega). Apoptosis was measured by labeling cells with Annexin V-PE or FITC or APC and 4, 6-diamidino-2-phenylindole (DAPI) (all from BD-PharMingen, San Diego, Calif.) and analyzed by flow cytometry. […] Cells were also exposed to EdU (C10640, Invitrogen) for 2 h and EdU staining was analyzed according to the manufacturer's protocol. Cell proliferation was also measured by CFSE staining (Molecular probes) based on the manufacturer's protocol. For CFC, Lin-CD34+CD38− cells cultured with or without NIL (5 μM) were plated in methylcellulose progenitor culture, and burst-forming unit-erythroid and colony-forming unit-granulocyte and macrophage cells were counted after 14 days. Colony replating assays were performed by collecting and pooling colonies from primary CFC assays and plating 10,000 cells in secondary CFC assays.
as §1

human CML HSCs = assay: NIL treatment of human CML HSCs: miR-126, PIK3R2, SPRED1 expression and cell cycle; type: cell-based
Protocol: After transduction performed as above, GFP+ cells selected at 48 h were exposed to NIL (2 μM and 5 μM, Novartis) for another 72 h, and analyzed using assays for cell growth, apoptosis, cell cycle, CFC and CFC replating. Human HSCs and mouse LT-HSCs were also treated with CpG-miR-126 inhibitor or CpG-scrRNA (500 nM), with or without NIL (5 μM), for 72 h and analyzed for cell growth, apoptosis, cell cycle and CFC. Human CML HSCs co-cultured with control or miR-126 KD HUVECs and mouse CML LT-HSCs co-cultured with control or miR-126 KD ECs for 96 h, with or without NIL (5 μM), were also analyzed for cell growth, apoptosis, cell cycle and CFC. Cell growth was measured by Lumino Glo (Promega). Apoptosis was measured by labeling cells with Annexin V-PE or FITC or APC and 4, 6-diamidino-2-phenylindole (DAPI) (all from BD-PharMingen, San Diego, Calif.) and analyzed by flow cytometry. Cell cycle was analyzed by Ki-67-Alexa Fluor 647 (B56, BD) and DAPI labeling based on the manufacturer's protocol. Cells were also exposed to EdU (C10640, Invitrogen) for 2 h and EdU staining was analyzed according to the manufacturer's protocol. Cell proliferation was also measured by CFSE staining (Molecular probes) based on the manufacturer's protocol. For CFC, Lin-CD34+CD38− cells cultured with or without NIL (5 μM) were plated in methylcellulose progenitor culture, and burst-forming unit-erythroid and colony-forming unit-granulocyte and macrophage cells were counted after 14 days. […]
To measure the miRNA and mRNA expression, total RNA was extracted using the miRNeasy Mini Kit (Qiagen, Valencia, Calif.). […] BCR-ABL expression in human and mouse samples were measured with primer and probe sequences for BCR-ABL (B3A2 or B2A2), as previously described^46. […]
K562, HUVEC, normal and CML CD34+CD38− cells were cultured and incubated with miR126 SmartFlare RNA probe (EMD Millipore) for 16 h. […] Nuclei were counterstained with DAPI and the images were analyzed using a confocal microscope (Carl Zeiss).

CML LT-HSCs = assay: NIL treatment of miR-126flox/wt/Tie2+ or Tie2− mice transplanted with CML LT-HSCs; type: in vivo, mouse; details: NIL 50 mg/kg daily oral gavage for 3 weeks
Protocol: Next, we sorted CML LT-HSCs from induced CD45.1/CD45.2 SCLtTA/BCR-ABL mice and transplanted them into CD45.2 miR-126^flox/wt/Tie2+ (heterozygous miR-126 KO allele in ECs) or Tie2− (WT miR-126 allele in ECs) mice. After confirming CML development, we treated the mice with NIL (50 mg/kg, daily by oral gavage) or vehicle for 3 weeks.
Animal studies. Inducible transgenic SCLtTA/BCR-ABL mice in the FVB/N background^37,38 were backcrossed to the B6 background (CD45.2) for 10 generations. Transgenic BCR-ABL mice were maintained on tetracycline water at 0.5 g/L. Withdrawal of tetracycline results in expression of BCR-ABL and generation of a CML-like disease in these mice^37,38. Unless otherwise indicated, BCR-ABL expression was induced for 2-3 weeks by tetracycline withdrawal in 6-8 weeks old male and female mice and then BM cells (from both tibias and femurs) were collected for experiments. SCLtTA/BCR-ABL mice (CD45.2, B6) were also bred with CD45.1 B6 mice to produce CD45.1/CD45.2 SCLtTA/BCR-ABL mice as donors. miR-126^flox/flox mice (B6, from Dr. Kuo, Stanford) were crossed with Mx1-cre, Tie2-cre (both from The Jackson Laboratory) and SCLtTA/BCR-ABL mice (all B6) to obtain the following strains: miR-126^flox/flox/Mx1-cre, SCLtTA/BCR-ABL/miR-126^flox/flox/Mx1-cre, miR-126^flox/wt/Tie2-cre and miR-126^flox/flox/Tie2-cre. […]

[2] = CML CD34+ cells, NIL treatment, western blot

For “5′ G*G*T GCA TCG ATG CAGG*G*G* G*G xxxxx mGmUmA mGmAmA mCmCmG mUmAmC mUmCmG mUmCmA mCmUmU mA 3′ (GGTGCATCGATGCAGGGGGGGUAGAACCGUACUCGUCACUUA; phosphorothioate, 2'-O-methyl, linker; (1)..(2) phosphorothioation; (2)..(3) phosphorothioation; (16)..(17) phosphorothioation; (17)..(18) phosphorothioation; (18)..(19) phosphorothioation; (19)..(20) phosphorothioation; (20)..(21) ((CH2)3)5; (20)..(21) Five C3 carbon chain linkers, ((CH2)3)5; modified_base (21)..(21) gm; modified_base (22)..(22) um; modified_base (23)..(23) 2′-O-Methyladenosine; modified_base (24)..(24) gm; modified_b) [scrRNA, CpG ODN linked to scrambled RNA, control oligonucleotide]”, the mice that survived (CML LSCs) was “all of the mice treated with scrRNA alone died of leukemia”.

With `Cc1cn(-c2cc(NC(=O)c3ccc(C)c(Nc4nccc(-c5cccnc5)n4)c3)cc(C(F)(F)F)c2)cn1` [NIL, nilotinib] the miR-126 expression (human BCR-ABL+K562 cells) was “increased”, the SPRED1 phosphorylation [1] was “de-phosphorylation” and the “binding and co-localization of SPRED1 with RAN” value [1] was “decreased”. For the same compound, the “formation of RAN/Exp-5/RCC1 complex” value [1] was “increased”, the “mature miR-126 levels” value [1] was “increased” and the “pri- and pre-miR-126 levels” value [1] was “decreased”. The “ratio of pri- and pre-miR-126 to mature miR-126 levels” value [1] was “decreased”, the cell survival (CML CD34+ cells; CML CD34+ cells, NIL treatment) was “promoted survival” and the BCL-2 expression (CML CD34+ cells; [2]) was “increased”. The MAPK/ERK activation (CML CD34+ cells; [2]) was “enhanced”, the “fraction of quiescent cells” value (human CML HSCs; human CML HSCs, 5 μM NIL vs DMSO, cell cycle analysis) was “increased” and the SPRED1 levels (human CML HSCs; human CML Lin-CD34+CD38− cells treated with NIL, compared with vehicle alone, QPCR) was “decreased”. The miR-126 expression (human CML HSCs; human CML Lin-CD34+CD38− cells, NIL 2 μM or 5 μM, compared with vehicle alone, QPCR and miRNA staining) was “increased”, the “day of 50 percent survival” value (CML LT-HSCs; Tie2− mice (WT miR-126 in ECs) transplanted with CML LT-HSCs, untreated Tie2− approx. day 60) was about 150 days and the “survival at day 150” value (CML LT-HSCs; miR-126flox/wt/Tie2+ mice (heterozygous miR-126 KO in ECs) transplanted with CML LT-HSCs) was “all NIL-treated Tie2+ mice were alive”.

For `O=C(NOC[C@H](O)CO)c1ccc(F)c(F)c1Nc1ccc(I)cc1F` [PD0325901], the NIL-induced apoptosis (CML CD34+ cells; CML Lin-CD34+ cells, PD0325901 500 nM in combination with NIL, 72 h) was “enhanced”.
